Measurements reported in patent US8129532B2, “Amino(oligo)thiophene dyes, preparation thereof, and optical methods of use” (The University of Connecticut, priority 2007, dated 2012).
Values joined by “and” are separate entries in the source; they are usually repeats but may differ in a detail not shown here. Equal values may be shown once. Blank lines part the entries; values can stand above or below the compound they belong to.

Legend:
membrane potential = conditions: cited from earlier work
[1] = One-photon absorption and emission spectra in multilamellar lipid vesicles, water and ethanol; format: physicochemical; conditions: one photon; soybean multi-lamellar lipid vesicles
Source text: […] The column indicating relative signal change for one-photon fluorescence also lists the excitation light source used and the lower bounds of the long-pass emission detected.
Absorption and emission spectra were obtained for a series of dyes with different acceptors: pyridinium (PY-1261), quinolinium (PY-212), and acridinium (PY-2240).

neuroblastoma cells = assay: SHG and 2PF imaging of stained neuroblastoma cells, 1064 nm fiber laser; format: cell-based, mouse; conditions: 1064 nm excitation
Source text: For full details of our non-linear imaging microscope, we refer the reader to previously published descriptions. A. C. Millard, P. J. Campagnola, W. Mohler, A. Lewis, and L. M. Loew, “Second Harmonic Imaging Microscopy,” Meth. Enzymol. 361, 47-69 (2003); Millard, A. C., L. Jin, and L. M. Loew, “Second Harmonic Generation Imaging Microscopy with a High Power Ultrafast Fiber Laser,”Commercial and Biomedical Applications of Ultrafast Lasers. 5714-5716, 92-98 (2005); A. C. Millard, L. Jin, M.-D. Wei, J. P. Wuskell, A. Lewis, and L. M. Loew, “Sensitivity of Second Harmonic Generation from Styryl Dyes to Transmembrane Potential,” Biophys. J. 86, 1169-1176 (2004). Our current microscope combines a Fluoview (Olympus) scan-head and an Axiovert (Zeiss) inverted microscope constructed for multiple imaging methodologies including wide-field, one-photon excitation fluorescence imaging, as well as SHG and 2PF imaging. Our laser sources include a Mira (Coherent) Ti:sapphire laser and a Femtopower (Fianium) fiber laser operating at 1064 nm. […] Fluorescence is imaged (for linear imaging) or collected (for non-linear imaging) back through the excitation objective, while SHG is collected in the forward, transmitted light direction by a condenser, either 0.8 NA or 0.55 NA (Zeiss). […]

[2] = One-photon fluorescence relative signal change per 100 mV; conditions: excitation / long-pass emission (nm) given
Source text: The left-most data columns of Table 1 are the absorption and emission maxima for one photon fluorescence in soybean multi-lamellar lipid vesicles used to mimic the membrane environment. The column indicating relative signal change for one-photon fluorescence also lists the excitation light source used and the lower bounds of the long-pass emission detected.

Compound: CCN(CC)c1ccc(/C=C/C=C/C=C/c2cc[n+](CCC[N+](CC)(CC)CC)cc2)cc1.[Br-].[Br-] [FM4-64]
SHG sensitivity to membrane potential (membrane potential; literature): < 10 % per 100 mV and 7.5-10 % per 100 mV

1PF Abs. Max [1]: 536 nm | 1PF Em. Max [1]: 588 nm
Compound: CCCCN(CCCC)c1ccc(/C=C/c2cc[n+](CCC[N+](CC)(CC)CC)cc2)s1 [PY-1284]
2PF and SHG image signal strength (neuroblastoma cells): weak | 1PF Change (ΔF/F-100 mv) [2]: 1.5E−002; 555/>610 ΔF/F-100 mv

Compound: CCCCN(CCCC)c1ccc2cc(/C=C/c3cc[n+](CCCS(=O)(=O)[O-])cc3)ccc2c1 [di-4-ANEPPS]
SHG Kinetics (exponential time constant) (membrane potential; literature (Millard 2005)): 70.6 ms
